The values below come from US20250099488A1, “ANTI-PARASITE COMPOUNDS” (AUSTRALIAN NATIONAL UNIVERSITY, priority 2022, published 2025).

Several values for one entry are separate records, joined by “and”; a condition that tells them apart may be missing. Identical values can stand only once. Like-named read-outs stand apart in the source and are kept apart here.

The test system of one data set is P. berghei liver stages. As to the kind of experiment: P. berghei liver stage growth assay (luciferase) in Huh7 cells. Format: cell-based, Plasmodium berghei. As for the experimental part: (§1) Huh7 cells were seeded at a density of 10 000 cells per well, or 20 000 per collagen-coated coverslip. […] Uninfected wells served as a control for background luminescence. […] Data are presented as a percentage of the size or parasite number of the solvent control to normalize for differences between experiments. For cell images presented in the figure, images were collected under optimal exposure settings to ensure features were visible. Individual cells were cropped from larger images with Fiji ImageJ, and the brightness was adjusted while ensuring that no fluorescence was removed. No other manipulations were performed.
(§2) Growth inhibition data were normalised by subtracting background fluorescence, luminescence, absorbance, or percentage of cells from a no-growth or no-viability control (high drug concentration, no-parasite control, or time=0 measurement as specified), and expressed as a percentage of the growth or cell percentage in the negative control (culture media alone or solvent control) at the indicated timepoint (or to the highest measurement reached during the assay for FIG. 15B).

Data set [1] relates to human foreskin fibroblasts (HFF). Description: HFF growth inhibition assay (SYBR Safe). The data set is classed as cell-based. As for the experimental part: Cells were incubated with a serial dilution of each compound, or media/DMSO alone. The protein synthesis inhibitor cycloheximide (10 μg/mL) was used as a positive control to determine background fluorescence. Approximately 5000 cells were seeded in each well. […] Plates were transferred to a −18° C. freezer. […] Fluorescence was read at 490 nm excitation/520 nm emission on a FLUOstar Optima fluorescence plate reader.
HFF cell growth inhibition assays began with 5000 cells per well. 10 μg/mL cycloheximide was used as a no-growth control.

Data set [2] concerns P. falciparum gametocytes (stage III-IV). As to the kind of experiment: Gametocyte viability assay (MitoTracker, flow cytometry). The data set is classed as cell-based, Plasmodium falciparum.
Source text: Gametocyte assays begun eight days post-invasion (Stage III-IV).
as §2
On the technique in general: A flow cytometer gives signals particle by particle.

A further data set has as its system asexual P. falciparum. As to the kind of experiment: Plasmodium growth inhibition assay (SYBR Safe), asexual stages. The settings on record: for IC90: read-out: IC90. Format: cell-based, Plasmodium falciparum. As for the experimental part: Compounds or solvent controls (DMSO, ethanol, or ethyl acetate) were serially diluted 2-fold across flat-bottom 96-well plates. Complete culture media without compound was used as a negative control. Chloroquine (100-200 nM) {Sigma C6628} was used as a positive control to determine background fluorescence. The parasitaemia of a culture containing predominantly ring stage parasites was counted by Giemsa smear. The parasitaemia was adjusted to 1% by addition of fresh uRBCs, and added to the plate at a final haematocrit of 1%, with 200 μL per well. The plates were incubated at 37° C. under humid microaerophilic conditions. […] Fluorescence was read at 490 nm excitation/520 nm emission on a FLUOstar Optima fluorescence plate reader {BMG Labtech}.
Growth inhibition data were normalised by subtracting background fluorescence from a no-growth control (high drug concentration or time=0 measurement as specified), and expressed as a percentage of the growth in the negative control (media alone or solvent control) either at the indicated timepoint, or to the highest measurement reached during the assay.
P. falciparum asexual parasite assays begun with ring-stage parasites at 1% parasitaemia and 1% haematocrit. 200 nM chloroquine (Sigma C6628) was used as a no-growth control. […] 17]; 8 (2):e54974).
as §2

The subject of data set [3] is human hepatoma cells (Huh7). Description: Huh7 hepatoma viability assay (CellTiter-Blue). Format: cell-based. The following applies: 48 hours. As for the experimental part:
Huh7 hepatoma viability assays were conducted in the same manner as the P. berghei assays, with metabolic capacity (indicating viability) measured by incubation with CellTiter-Blue® (Promega) for 3 hours.
(In general: Alamar Blue is a resazurin reagent that responds to reducing activity.)

In data set [4] the test system is Toxoplasma gondii tachyzoites. As to the kind of experiment: Toxoplasma growth inhibition assay (tdTomato fluorescence). Format: cell-based. The protocol:
Fluorescent Toxoplasma gondii parasites were inoculated into an optical bottom 96-well plate containing confluent human foreskin fibroblast (HFF) host cells at a density of 2000 parasites/well, with a serial dilution of each compound, or media/DMSO alone. Plates were measured daily with a FluoStar Optima fluorescence plate reader at 540 nm excitation/590 nm emission for seven days, and the background fluorescence from the time 0 reading was subtracted from all other measurements.
Fluorescence was measured daily with a FluoStar Optima fluorescence plate reader for one week, and the background fluorescence from the time 0 reading was subtracted from all other measurements.
as §2

For data set [5], the system named is human embryonic kidney cells (HEK293). As to the kind of experiment: HEK293 cell viability assay (MTT). Format: cell-based. The settings on record: 96 hours. The protocol:
(§3) HEK293 cell viability assays began with 5000 cells per well. 10 μg/mL cycloheximide was used as a no-growth control. Metabolic capacity (indicating viability) was measured by incubation with 0.45 mg/mL methylthiazolyldiphenyl-tetrazolium bromide (MTT; Sigma M2128) for two hours followed by crystal solubilisation in SDS.

The subject of data set [6] is P. berghei liver stage schizonts. As to the kind of experiment: P. berghei liver stage parasite size and number (fluorescence microscopy) in Huh7 cells. The data set is classed as cell-based, Plasmodium berghei. The settings on record: for Smaller parasite size (reduction): 48 hours post-infection, vs DMSO. As for the experimental part: as §1
Data set [7] relates to P. falciparum CAM3.IIREV (susceptible). As to the kind of experiment: Ring stage survival assay, susceptible revertant strain. The data set is classed as cell-based, Plasmodium falciparum. The settings on record: 700 nM for six hours, then 66 hours without drug. The source says:
(§4) The inventors tested these compounds in a ring stage survival assay, which allows the detection of resistant parasites against this […] drug and is the standard method for investigating resistance to artemisinin and its derivatives (Witkowski B, Menard D, Amaratunga C. Fairhurst R. Ring-stage Survival Assays (RSA) to evaluate the in-vitro and ex-vivo susceptibility of Plasmodium falciparum to artemisinins Procedure. Inst Pasteur du Cambodge—Natl Institutes Heal [Internet]. 2013 Sep. 11 [cited 2022 Jun. 19]; Procedure; available from: https://www.wwarn.org/sites/default/files/INV10-Standard-Operating-Procedure-Ring-Stage-Survival-Assays.pdf). This assay involves a short treatment window against newly-invaded ring stage parasites, followed by removal of drug pressure to mimic the clearance of the drug from plasma. We utilised two parasite strains: an isolate from Cambodia (CAM3.II) with a mutated Kelch-13 conferring resistance, and a genetically modified revertant of this strain (CAM3.IIREV) conferring drug susceptibility (Straimer J, Gnädig N F, Witkowski B, Amaratunga C, Duru V, Ramadani A P, et al. K13-propeller mutations confer artemisinin resistance in Plasmodium falciparum clinical isolates. Science (80-) [Internet]. 2015 Jan. 23 [cited 2022 Jun. 19]; 347(6220):428-31; available from: https://www.science.org/doi/10.1126/science.1260867).
(§5) Following tight synchronisation, CAM3.II and CAM3.IIREV ring stage parasites (0-3 hours post invasion) at 1% parasitaemia and 2% haematocrit were incubated with 700 nM of compounds or solvent-only controls for exactly six hours, before removing the drug, thoroughly washing in RPMI, and returning to culture conditions for a further 66 hours. Some cells were treated with 700 nM artesunate for 72 hours as a no-growth control. DNA replication (indicating growth) was measured at the specified time using SYBR Safe DNA Gel Stain. Microscope slide smears of each condition were stained with 10% v/v Giemsa and examined under a light microscope (1 000× magnification); with ‘viable’ (morphologically normal) and ‘non-viable’ (morphologically aberrant; vacuolated or pyknotic) parasites distinguished according to standard protocol (Witkowski B, Menard D, Amaratunga C, Fairhurst R. Ring-stage Survival Assays (RSA) to evaluate the in-vitro and ex-vivo susceptibility of Plasmodium falciparum to artemisinins Procedure. Inst Pasteur du Cambodge—Natl Institutes Heal [Internet]. 2013 Sep. 11 [cited 2022 Jun. 19]; Procedure. Available from: https://www.wwam.org/sites/default/files/INV10-Standard-Operating-Procedure-Ring-Stage-Survival-Assays.pdf). Images were captured using a Leica ICC50 camera, with a resolution of 76 nm per pixel.

For data set [8] the following is noted: in vivo; cited from earlier work.
Data set [9] concerns P. falciparum CAM3.II (mutated Kelch-13, resistant). Description: Ring stage survival assay, resistant strain. The settings on record: 700 nM for six hours, then 66 hours without drug. Format: cell-based, Plasmodium falciparum.
Source text: as §4, §5

The test system of data set [10] is chloroquine sensitive P. falciparum strains 3D7 and C2_GC03. As to the kind of experiment: Growth inhibition of chloroquine sensitive P. falciparum strains. Format: cell-based, Plasmodium falciparum. The following applies: FIG. 21B/21C. The protocol: (§6) Growth inhibition was investigated according to methods described by Smilkstein et al. (2004) with modifications by Spry et al. (2013). Compounds or solvent controls (DMSO, ethanol, or ethyl acetate) were serially diluted 2-fold across flat-bottom 96-well plates. Complete culture media without compound was used as a negative control. Chloroquine (100-200 nM) {Sigma C6628} was used as a positive control to determine background fluorescence. The parasitaemia of a culture containing predominantly ring stage parasites was counted by Giemsa smear. The parasitaemia was adjusted to 1% by addition of fresh uRBCs, and added to the plate at a final haematocrit of 1%, with 200 μL per well. The plates were incubated at 37° C. under humid microaerophilic conditions. After 72 hours (or the indicated timepoint), the plates were transferred to a −18° C. freezer to stop the assay and lyse cells. Plates were thawed and lysate was mixed 1:1 with SYBR Safe DNA Gel Stain {Invitrogen 33102}(final concentration 1/10000) diluted in lysis buffer (20 mM TRIS, 5 mM EDTA, 0.008% w/v Saponin, 0.08% w/v Triton-X 100, pH 7.5). Fluorescence was read at 490 nm excitation/520 nm emission on a FLUOstar Optima fluorescence plate reader {BMG Labtech}. […]

Data set [11] can be described thus: HEK293 cell viability assay (MTT). Format: cell-based, human. The settings on record: human, 72 hours, FIG. 21E, conjugate = BC75D, read-out: IC50, HEK293 cytotoxicity. As for the experimental part:
as §3

Data set [12] deals with chloroquine resistant P. falciparum strain C4_Dd2. Description: Growth inhibition of chloroquine resistant P. falciparum strain. Format: cell-based, Plasmodium falciparum. The following applies: 72 hours, FIG. 21D; conjugate = BC75D. The protocol:
as §6

The IC90 is the concentration needed for an effect of 90%.

For `COc1cc(NC(C)CCCNC(=O)CCC(=O)O[C@H]2CC[C@H]3[C@@H]4CC=C5C[C@@H](O)CC[C@]5(C)[C@H]4CC[C@]23C)c2ncccc2c1` (stereo partly drawn) [C-17-prim, 3β-Hydroxyandrost-5-en-17β-yl succinate-primaquine amide], the “Fold reduction in IC50 compared to primaquine alone” value in the data set on P. berghei liver stages (48 hours) is listed as ~15 fold; in data set [2] (48 hours), 9 fold. Further, the IC50 in the data set on P. berghei liver stages (Plasmodium berghei, Huh-7, 48 hours of treatment from sporozoite inoculation, Huh7 cells, FIG. 16A) came out at 0.2 µM; in [2] (Plasmodium falciparum, 48 h, read-out: IC50, gametocyte viability) it was 6.9 µM; in the data set on asexual P. falciparum (Plasmodium falciparum, 24 hours, starting with ring-stage parasites, FIG. 14B, read-out: IC50) it was 3.1 µM; in data set [4] (Toxoplasma gondii, 72 h, read-out: IC5 against T. gondii), 2.8 µM. Besides, the “Concentration with substantial effect on fibroblast growth” value in [1] (72 hours) is 10 µM. The “Maximal inhibition of HFF growth at the range of concentrations tested” value in [1] (72 hrs) is recorded as ≤ 30%. The “Fold lower IC50 than primaquine alone” value with asexual P. falciparum is given as ~4 fold. The “Fold difference in IC90 vs primaquine” value in the data set with asexual P. falciparum (24 hours) is reported as ~8 fold. Besides, the “Hill slope of inhibitory curve” value in the data set with asexual P. falciparum (24 hours) is −4.56; in the data set with asexual P. falciparum (72 hours), −4.20. The IC90 stood at 5 µM in the data set with asexual P. falciparum (Plasmodium falciparum, 24 hours) and 4 µM in the data set with asexual P. falciparum (Plasmodium falciparum, 72 hours exposure time). The “Cell viability over the range of concentrations” value in data set [3] was > 50%. The “Concentration at which cytotoxic effect was detected” value in data set [3] (effect on cellular integrity / modest cytotoxicity) turned out to be 3 µM. Also, the “Fold lower IC50 than primaquine” value in data set [4] (72 hours) is ~3.5 fold. Besides, the “Concentration at which gradual cytotoxicity emerges” value in data set [5] was 10 µM. The “Smaller parasite size (reduction)” value came to 48% in [6] (0.3 μM) and 90% in data set [6] (3 μM). In addition, in data set [6] (0.3 or 3 μM, compared to the same concentration of primaquine or DMSO-only control), the “Parasite number (per coverslip)” value is recorded as “significantly lower”.
On to `C[C@H]1[C@H](OC(=O)CCC(=O)O)O[C@@H]2O[C@@]3(C)CC[C@H]4[C@H](C)CC[C@@H]1[C@@]24OO3` [artesunate, reference compound], for which the “Morphology in Giemsa-stained smears” value was “only morphologically aberrant parasites were present” in data set [7]; “a combination of morphologically normal parasites and morphologically aberrant pyknotic or vacuolated forms” in data set [9]. The Half-life in blood in data set [8] was 30 to 90 min. Further, the “Parasite survival (DNA replication)” value in data set [9] (FIG. 17B) was > 30% and ~30%.
`CCN(CCO)CCCC(C)Nc1ccnc2cc(Cl)ccc12` (centres unmarked) [hydroxychloroquine, reference compound]: in data set [10], the “Fold better efficacy than hydroxychloroquine-steroid conjugates” value is listed as 1.4-1.6 fold. The IC50 at 72 h in data set [11] (HEK293 cells) was 38.4 µM.
Turning to `CCN(CCCC(C)Nc1ccnc2cc(Cl)ccc12)CCOC(=O)CCC(=O)O[C@H]1CC[C@H]2[C@@H]3CC=C4C[C@@H](O)CC[C@]4(C)[C@H]3CC[C@]12C` (some centres unmarked) [hydroxychloroquine-steroid conjugate], the “Times more effective at killing resistant parasites than hydroxychloroquine” value in [12] came to 2.6 fold. In addition, the IC50 at 72 h in data set [11] came to 13 µM.
